From ChEMBL document CHEMBL4699621, “Novel piperazine-2,5-dione analogs bearing 1H-indole: Synthesis and biological effects” (Bioorg Med Chem Lett, 2020) come the findings set out here.

Experiment [1] deals with Mus musculus. Nature of the experiment: Antidepressant activity in mouse assessed as decrease in immobility time at 10 mg/kg, ip by forced swimming test (reference value: 147.8 +/- 10.2 sec). The class given is functional.
Experiment [2] has as its system Mus musculus. Description: Anti-inflammatory activity against dimethylbenzene-induced ear edema mouse model assessed as inhibition of ear edema at 10 mg/kg, ip measured after 60 mins (reference value: 6.93 +/- 1.05 mg). The class given is functional. To be noted: 1 h.
The subject of experiment [3] is Mus musculus. Description: Analgesic activity in mouse assessed as inhibition of acetic acid-induced writhing at 10 mg/kg, ip measured after 60 mins relative to control. The class given is functional. The arrangement: scale not given: the % may be the effect or the level left. To be noted: 1 h.
Experiment [4] concerns Mus musculus. Nature of the experiment: Anti-inflammatory activity against dimethylbenzene-induced ear edema mouse model assessed as inhibition of ear edema at 10 mg/kg, ip measured after 60 mins relative to control. The format is functional. The arrangement: scale not given: the % may be the effect or the level left. To be noted: 1 h.
Experiment [5] addresses 5-HT3 receptor (Cavia porcellus). Nature of the experiment: Antagonist activity against 5-H3R in guinea pig ileum preincubated for 10 mins followed by 2-methyl 5-HT addition. To be noted: read-out: pA2 (converted).
Experiment [6] has as its system Mus musculus. Description: Antidepressant activity in mouse assessed as decrease in immobility time at 10 mg/kg, ip by forced swimming test relative to control. The format is functional. The arrangement: scale not given: the % may be the effect or the level left.

As to `Cc1cc2cc(CC3NC(=O)C(C)NC3=O)[nH]c2cc1C` (stereo not given), the Time with Mus musculus [1] is 87.2 s. For the same compound, the Activity is on record as 2.83 mg in the experiment with Mus musculus [2] and 54.3% in the experiment with Mus musculus [3].

With `Cc1ccc2cc(CC3NC(=O)C(C)NC3=O)[nH]c2c1` (stereo not given), the Activity came out at 83.3% with Mus musculus [4], 1.12 mg in the experiment on Mus musculus [2] and 79.3% in the experiment with Mus musculus [3]. Moreover, the Time in the experiment with Mus musculus [1] amounted to 58.2 s.

`CC1NC(=O)C(Cc2cc3ccc(F)cc3[nH]2)NC1=O` (stereo not given): the Activity in the experiment on Mus musculus [4] was 90%; in the experiment on Mus musculus [2], 0.69 mg; in the experiment with Mus musculus [3] it was 77.8%. In the experiment with Mus musculus [1], the Time was found to be 52.8 s.

In the case of `COc1cc2cc(CC3NC(=O)C(C)NC3=O)[nH]c2cc1OC` (stereo not given), the Time in the experiment with Mus musculus [1] was 98 s. Further, the Activity in the experiment with Mus musculus [2] worked out at 3.03 mg; in the experiment with Mus musculus [3] it was 58.9%.

As to `CC1NC(=O)C(Cc2cc3cc(Cl)ccc3[nH]2)NC1=O` (stereo not given), the Activity in the experiment on Mus musculus [4] was found to be 89.8%; with Mus musculus [2] it was 0.7 mg; in the experiment on Mus musculus [3], 87.5%. The Time in the experiment with Mus musculus [1] is 64.8 s.

In the case of `CC1NC(=O)C(Cc2cc3ccc(Cl)cc3[nH]2)NC1=O` (stereo not given), the Activity with Mus musculus [4] was 87.2%; in the experiment with Mus musculus [2], 0.89 mg; in the experiment with Mus musculus [3] it was 65.4%. Also, the Time in the experiment with Mus musculus [1] is on record as 66.8 s.

Turning to `CC1NC(=O)C(Cc2cc3cc(Br)ccc3[nH]2)NC1=O` (stereo not given), the Time with Mus musculus [1] turned out to be 79.4 s. Besides, the Activity in the experiment with Mus musculus [2] came to 1.42 mg; in the experiment on Mus musculus [3], 70.2%.

`CC1NC(=O)C(Cc2cc3ccc(Br)cc3[nH]2)NC1=O` (stereo not given): the Time in the experiment on Mus musculus [1] worked out at 76.8 s. Also, the Activity with Mus musculus [2] stood at 1.72 mg; in the experiment with Mus musculus [3], 62.8%.

For the compound `CC1NC(=O)C(Cc2cc3cc(F)ccc3[nH]2)NC1=O` (stereo not given), the figures for the Activity in the experiment with Mus musculus [4], in the experiment with Mus musculus [2] and with Mus musculus [3] were 91.2%, 0.61 mg and 90.2%, respectively. The Time with Mus musculus [1] amounted to 53.1 s.

On to `CC1NC(=O)C(Cc2cc3cc([N+](=O)[O-])ccc3[nH]2)NC1=O` (stereo not given), for which the Time in the experiment on Mus musculus [1] came out at 88.6 s. The Activity with Mus musculus [2] came out at 1.61 mg; in the experiment on Mus musculus [3], 66.8%.

As to `CC1NC(=O)C(Cc2cc3cc(N(C)C)ccc3[nH]2)NC1=O` (stereo not given), in the experiment on Mus musculus [1], the Time is on record as 91.3 s. Further, the Activity in the experiment on Mus musculus [2] is recorded as 2.02 mg; in the experiment with Mus musculus [3], 50.9%.

With `CC1NC(=O)C(Cc2cc3ccccc3[nH]2)NC1=O` (stereo not given), in the experiment with Mus musculus [1], the Time is listed as 93.3 s. In addition, the Activity was determined as 2.4 mg in the experiment with Mus musculus [2] and 51.6% with Mus musculus [3].

As to `Cc1ccccc1N1CCN(C(=O)C2Cc3ccccc3N2C)CC1` (stereo not given), the Kb in experiment [5] was 31.6 nM.

As for `CC1NC(=O)C(Cc2cc3cc(C(F)(F)F)ccc3[nH]2)NC1=O` (stereo not given), the Activity with Mus musculus [4] is on record as 93.5%; with Mus musculus [2], 0.45 mg; in the experiment on Mus musculus [6], 70.2%; with Mus musculus [3], 88.9%. For the same compound, in the experiment on Mus musculus [1], the Time worked out at 44 s.

Regarding `COc1ccc2cc(CC3NC(=O)C(C)NC3=O)[nH]c2c1` (stereo not given), the Time with Mus musculus [1] turned out to be 77.2 s. The Activity in the experiment on Mus musculus [2] stood at 1.5 mg; in the experiment with Mus musculus [3], 65%.

Take `CC1NC(=O)C(Cc2cc3ccc(N(C)C)cc3[nH]2)NC1=O` (stereo not given): the Time with Mus musculus [1] is 95.1 s. The Activity amounted to 2.47 mg in the experiment with Mus musculus [2] and 60.1% in the experiment with Mus musculus [3].

As for `CC1NC(=O)C(Cc2cc3cc(Cl)c(Cl)cc3[nH]2)NC1=O` (stereo not given), the Activity in the experiment on Mus musculus [4] is recorded as 87.2%; in the experiment on Mus musculus [2] it was 0.79 mg; in the experiment with Mus musculus [6], 71.2%; in the experiment with Mus musculus [3] it was 82.5%. Further, the Time with Mus musculus [1] was 42.5 s.

Take `COc1ccc2[nH]c(CC3NC(=O)C(C)NC3=O)cc2c1` (stereo not given): the Time in the experiment on Mus musculus [1] stood at 67.3 s. Moreover, the results for the Activity in the experiment on Mus musculus [2] and in the experiment with Mus musculus [3] were 1.41 mg and 53.2%, respectively.

`Cc1ccc2[nH]c(CC3NC(=O)C(C)NC3=O)cc2c1` (stereo not given): the Activity in the experiment on Mus musculus [4] was 85%; in the experiment on Mus musculus [2] it was 1.04 mg; in the experiment on Mus musculus [3] it was 55.2%. Also, the Time in the experiment on Mus musculus [1] came out at 53.5 s.

In the case of `CNCCC(Oc1ccc(C(F)(F)F)cc1)c1ccccc1` (stereo not given) [FLUOXETINE], the Time in the experiment with Mus musculus [1] turned out to be 47.4 s. The Activity with Mus musculus [6] is 67.9%.

As for `COc1ccc2c(c1)c(CC(=O)O)c(C)n2C(=O)c1ccc(Cl)cc1` [INDOMETHACIN], the values for the Activity with Mus musculus [4], with Mus musculus [2] and in the experiment on Mus musculus [3] were 84.8%, 1.05 mg and 88.7%, respectively.
